# Structures can show the parent of a compound that is named as a salt.
# Target: DPP4 (Homo sapiens, UniProt P27487)
# Assay: DPP4 activity assay (DPP4 inhibitor screening assay kit, Cayman);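 also: fluorescence read at excitation 360 nm and emission 460 nm after the enzyme reaction ran 30 min at 37 °C in a 96-well plate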
# Assay type: biochemical
# Set-up: purchased Cayman Chemical, Ann Arbor, MI, USA
# Details: 10 µM; control mean 100.0; Figure 1A raw data
# DPP4, sequence (P27487 whole entry): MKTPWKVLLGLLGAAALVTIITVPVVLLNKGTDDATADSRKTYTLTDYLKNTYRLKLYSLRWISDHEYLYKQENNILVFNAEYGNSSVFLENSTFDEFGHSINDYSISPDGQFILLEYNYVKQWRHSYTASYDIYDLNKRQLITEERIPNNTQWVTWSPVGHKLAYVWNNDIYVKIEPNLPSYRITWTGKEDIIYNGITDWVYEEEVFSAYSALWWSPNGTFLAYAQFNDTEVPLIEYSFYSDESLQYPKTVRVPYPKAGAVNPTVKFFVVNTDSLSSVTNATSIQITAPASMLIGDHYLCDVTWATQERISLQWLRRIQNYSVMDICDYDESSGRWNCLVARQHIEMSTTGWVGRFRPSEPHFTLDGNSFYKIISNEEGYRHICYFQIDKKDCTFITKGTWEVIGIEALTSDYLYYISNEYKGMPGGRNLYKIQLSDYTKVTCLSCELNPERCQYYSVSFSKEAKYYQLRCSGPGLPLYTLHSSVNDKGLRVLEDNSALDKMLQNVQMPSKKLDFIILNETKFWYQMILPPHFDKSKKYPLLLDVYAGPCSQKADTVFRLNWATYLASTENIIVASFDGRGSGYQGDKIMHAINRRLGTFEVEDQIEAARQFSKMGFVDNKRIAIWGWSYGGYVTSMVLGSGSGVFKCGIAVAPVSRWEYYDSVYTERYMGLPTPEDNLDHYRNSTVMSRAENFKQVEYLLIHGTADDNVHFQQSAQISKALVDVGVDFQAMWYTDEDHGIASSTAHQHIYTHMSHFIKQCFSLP
SMILES,"DPP4 activity in library screen, Exp 1","DPP4 activity in library screen, Exp 2","DPP4 activity in library screen, Exp 3"
C[C@@H]1O[C@@H](O[C@H]2[C@H](Oc3cc(O)c(C(=O)CCc4ccc(O)cc4)c(O)c3)O[C@H](CO)[C@@H](O)[C@@H]2O)[C@H](O)[C@H](O)[C@H]1O [Naringin Dihydrochalcone],84.3,82.4,91.6
C=C1C[C@@]2(O)O[C@@]3(C[C@H]2C(C)C)[C@@H](C)CC[C@@H]13 [Curcumol],100.6,99.6,110.6
CCCCCCCCCCCCCCCC(=O)OC[C@@]1(O)C[C@@]23CC[C@@H]4c5ccoc5CC[C@@]4(C)[C@@H]2CC[C@@H]1C3 [Cafestol palmitate],96.3,108.3,144
COc1ccc(-c2coc3cc(O)cc(O)c3c2=O)cc1 [Biochanin A],94.6,100.9,85.2
COc1ccc([C@@H]2CC(=O)c3c(O)cc(O[C@@H]4O[C@H](CO)[C@@H](O)[C@H](O)[C@H]4O[C@@H]4O[C@@H](C)[C@H](O)[C@@H](O)[C@H]4O)cc3O2)cc1O [Neohesperidin],93.8,90.3,71.8
Br.CCN1C[C@]2(OC(=O)c3ccccc3NC(C)=O)CC[C@H](OC)[C@]34C1[C@H](C[C@H]23)[C@@]1(O)C[C@H](OC)[C@H]2C[C@@H]4[C@]1(O)[C@H]2OC [Lappaconite HBr],95.4,80.2,92.6

# Same assay, conditions: 10 µM; control mean 100.0; mean of Exp 1-3
row,SMILES,"DPP4 activity in library screen, Mean"
1,C[C@@H]1O[C@@H](O[C@H]2[C@H](Oc3cc(O)c(C(=O)CCc4ccc(O)cc4)c(O)c3)O[C@H](CO)[C@@H](O)[C@@H]2O)[C@H](O)[C@H](O)[C@H]1O [Naringin Dihydrochalcone],86.1
2,C=C1C[C@@]2(O)O[C@@]3(C[C@H]2C(C)C)[C@@H](C)CC[C@@H]13 [Curcumol],103.6
3,CCCCCCCCCCCCCCCC(=O)OC[C@@]1(O)C[C@@]23CC[C@@H]4c5ccoc5CC[C@@]4(C)[C@@H]2CC[C@@H]1C3 [Cafestol palmitate],116.2
4,COc1ccc(-c2coc3cc(O)cc(O)c3c2=O)cc1 [Biochanin A],93.6
5,COc1ccc([C@@H]2CC(=O)c3c(O)cc(O[C@@H]4O[C@H](CO)[C@@H](O)[C@H](O)[C@H]4O[C@@H]4O[C@@H](C)[C@H](O)[C@@H](O)[C@H]4O)cc3O2)cc1O [Neohesperidin],85.3
6,Br.CCN1C[C@]2(OC(=O)c3ccccc3NC(C)=O)CC[C@H](OC)[C@]34C1[C@H](C[C@H]23)[C@@]1(O)C[C@H](OC)[C@H]2C[C@@H]4[C@]1(O)[C@H]2OC [Lappaconite HBr],89.4

# Same assay, conditions: 0.5 h, 10 µM; control mean 100.0; Figure 1A raw data; read-out: DPP4 activity in library screen, Exp 1
row,SMILES,remaining activity at 10 µM [%]
1,"O=C(O)CCCc1c[nH]c2ccccc12 [3-Indolebutyric acid (IBA), 3-Indolebutyric acid]",92
2,COc1ccc(-c2cc(=O)c3c(OC)c(OC)c(OC)c(OC)c3o2)cc1 [Tangeretin],75.6
3,OC[C@@H](O)[C@@H](O)[C@H](O)[C@H](O)CO [D-Mannitol],96
4,N#C[C@H](O[C@@H]1O[C@H](CO[C@@H]2O[C@H](CO)[C@@H](O)[C@H](O)[C@H]2O)[C@@H](O)[C@H](O)[C@H]1O)c1ccccc1 [Amygdalin],96.2
5,CN(C)CCc1ccc(O)cc1 [Hordenine],90.7
6,OC[C@H]1O[C@@H](Oc2ccc(O)cc2)[C@H](O)[C@@H](O)[C@@H]1O [Arbutin],95.9
7,CC1=C(CC/C(C)=C/CCC2=CC[C@H](C3=CC(=O)O[C@H]3O)O[C@H]2O)C(C)(C)CCC1 [Manoalide],102
8,OC[C@H]1O[C@@H](OCCc2ccc(O)cc2)[C@H](O)[C@@H](O)[C@@H]1O [Salidroside],97.1
9,OC[C@@H](O)[C@@H](O)[C@H](O)[C@@H](O)CO [Sorbitol],94.5
10,C[C@H]1[C@H](C)CC[C@]2(C(=O)O)CC[C@]3(C)C(=CC[C@@H]4[C@@]5(C)CC[C@H](O)C(C)(C)[C@@H]5CC[C@]43C)[C@H]12 [Ursolic Acid],85.1
11,O=C1c2c(O)cccc2C([C@@H]2O[C@H](CO)[C@@H](O)[C@H](O)[C@H]2O)c2cc(CO)cc(O)c21 (some centres unmarked) [Aloin],91.5
12,COc1cc(C=O)ccc1O [Vanillin],105
13,COc1ccc([C@@H]2CC(=O)c3c(O)cc(O)cc3O2)cc1O [Hesperetin],80.8
14,C=C1C(=O)[C@]23[C@H](O)[C@H]1CC[C@H]2[C@@]12CO[C@]3(O)[C@@H](O)[C@@H]1C(C)(C)CC[C@@H]2O [Oridonin],81
15,O=c1cc(-c2ccc(O)c(O)c2)oc2cc(O)cc(O)c12 [Luteolin],61.4

# Same assay, conditions: 0.5 h, 10 µM; control mean 100.0; Figure 1A raw data; read-out: DPP4 activity in library screen, Exp 2
row,SMILES,remaining activity at 10 µM [%]
1,"O=C(O)CCCc1c[nH]c2ccccc12 [3-Indolebutyric acid (IBA), 3-Indolebutyric acid]",93.9
2,COc1ccc(-c2cc(=O)c3c(OC)c(OC)c(OC)c(OC)c3o2)cc1 [Tangeretin],80.1
3,OC[C@@H](O)[C@@H](O)[C@H](O)[C@H](O)CO [D-Mannitol],95.6
4,N#C[C@H](O[C@@H]1O[C@H](CO[C@@H]2O[C@H](CO)[C@@H](O)[C@H](O)[C@H]2O)[C@@H](O)[C@H](O)[C@H]1O)c1ccccc1 [Amygdalin],94.7
5,CN(C)CCc1ccc(O)cc1 [Hordenine],95.7
6,OC[C@H]1O[C@@H](Oc2ccc(O)cc2)[C@H](O)[C@@H](O)[C@@H]1O [Arbutin],96.2
7,CC1=C(CC/C(C)=C/CCC2=CC[C@H](C3=CC(=O)O[C@H]3O)O[C@H]2O)C(C)(C)CCC1 [Manoalide],112
8,OC[C@H]1O[C@@H](OCCc2ccc(O)cc2)[C@H](O)[C@@H](O)[C@@H]1O [Salidroside],97.1
9,OC[C@@H](O)[C@@H](O)[C@H](O)[C@@H](O)CO [Sorbitol],91.5
10,C[C@H]1[C@H](C)CC[C@]2(C(=O)O)CC[C@]3(C)C(=CC[C@@H]4[C@@]5(C)CC[C@H](O)C(C)(C)[C@@H]5CC[C@]43C)[C@H]12 [Ursolic Acid],78.9
11,O=C1c2c(O)cccc2C([C@@H]2O[C@H](CO)[C@@H](O)[C@H](O)[C@H]2O)c2cc(CO)cc(O)c21 (some centres unmarked) [Aloin],70.4
12,COc1cc(C=O)ccc1O [Vanillin],95.3
13,COc1ccc([C@@H]2CC(=O)c3c(O)cc(O)cc3O2)cc1O [Hesperetin],106
14,C=C1C(=O)[C@]23[C@H](O)[C@H]1CC[C@H]2[C@@]12CO[C@]3(O)[C@@H](O)[C@@H]1C(C)(C)CC[C@@H]2O [Oridonin],85.4
15,O=c1cc(-c2ccc(O)c(O)c2)oc2cc(O)cc(O)c12 [Luteolin],68.3

# Same assay, conditions: 0.5 h, 10 µM; control mean 100.0; Figure 1A raw data; read-out: DPP4 activity in library screen, Exp 3
row,SMILES,remaining activity at 10 µM [%]
1,"O=C(O)CCCc1c[nH]c2ccccc12 [3-Indolebutyric acid (IBA), 3-Indolebutyric acid]",107
2,COc1ccc(-c2cc(=O)c3c(OC)c(OC)c(OC)c(OC)c3o2)cc1 [Tangeretin],66.2
3,OC[C@@H](O)[C@@H](O)[C@H](O)[C@H](O)CO [D-Mannitol],83.5
4,N#C[C@H](O[C@@H]1O[C@H](CO[C@@H]2O[C@H](CO)[C@@H](O)[C@H](O)[C@H]2O)[C@@H](O)[C@H](O)[C@H]1O)c1ccccc1 [Amygdalin],92.1
5,CN(C)CCc1ccc(O)cc1 [Hordenine],95.6
6,OC[C@H]1O[C@@H](Oc2ccc(O)cc2)[C@H](O)[C@@H](O)[C@@H]1O [Arbutin],96.1
7,CC1=C(CC/C(C)=C/CCC2=CC[C@H](C3=CC(=O)O[C@H]3O)O[C@H]2O)C(C)(C)CCC1 [Manoalide],125
8,OC[C@H]1O[C@@H](OCCc2ccc(O)cc2)[C@H](O)[C@@H](O)[C@@H]1O [Salidroside],113
9,OC[C@@H](O)[C@@H](O)[C@H](O)[C@@H](O)CO [Sorbitol],90.4
10,C[C@H]1[C@H](C)CC[C@]2(C(=O)O)CC[C@]3(C)C(=CC[C@@H]4[C@@]5(C)CC[C@H](O)C(C)(C)[C@@H]5CC[C@]43C)[C@H]12 [Ursolic Acid],89.1
11,O=C1c2c(O)cccc2C([C@@H]2O[C@H](CO)[C@@H](O)[C@H](O)[C@H]2O)c2cc(CO)cc(O)c21 (some centres unmarked) [Aloin],71.7
12,COc1cc(C=O)ccc1O [Vanillin],51.5
13,COc1ccc([C@@H]2CC(=O)c3c(O)cc(O)cc3O2)cc1O [Hesperetin],78.5
14,C=C1C(=O)[C@]23[C@H](O)[C@H]1CC[C@H]2[C@@]12CO[C@]3(O)[C@@H](O)[C@@H]1C(C)(C)CC[C@@H]2O [Oridonin],96.9
15,O=c1cc(-c2ccc(O)c(O)c2)oc2cc(O)cc(O)c12 [Luteolin],70

# Same assay, conditions: 0.5 h, 10 µM; control mean 100.0; mean of Exp 1-3; read-out: DPP4 activity in library screen, Mean
row,SMILES,remaining activity at 10 µM [%]
1,"O=C(O)CCCc1c[nH]c2ccccc12 [3-Indolebutyric acid (IBA), 3-Indolebutyric acid]",97.5
2,COc1ccc(-c2cc(=O)c3c(OC)c(OC)c(OC)c(OC)c3o2)cc1 [Tangeretin],74
3,OC[C@@H](O)[C@@H](O)[C@H](O)[C@H](O)CO [D-Mannitol],91.7
4,N#C[C@H](O[C@@H]1O[C@H](CO[C@@H]2O[C@H](CO)[C@@H](O)[C@H](O)[C@H]2O)[C@@H](O)[C@H](O)[C@H]1O)c1ccccc1 [Amygdalin],94.3
5,CN(C)CCc1ccc(O)cc1 [Hordenine],94
6,OC[C@H]1O[C@@H](Oc2ccc(O)cc2)[C@H](O)[C@@H](O)[C@@H]1O [Arbutin],96.1
7,CC1=C(CC/C(C)=C/CCC2=CC[C@H](C3=CC(=O)O[C@H]3O)O[C@H]2O)C(C)(C)CCC1 [Manoalide],113
8,OC[C@H]1O[C@@H](OCCc2ccc(O)cc2)[C@H](O)[C@@H](O)[C@@H]1O [Salidroside],102
9,OC[C@@H](O)[C@@H](O)[C@H](O)[C@@H](O)CO [Sorbitol],92.1
10,C[C@H]1[C@H](C)CC[C@]2(C(=O)O)CC[C@]3(C)C(=CC[C@@H]4[C@@]5(C)CC[C@H](O)C(C)(C)[C@@H]5CC[C@]43C)[C@H]12 [Ursolic Acid],84.4
11,O=C1c2c(O)cccc2C([C@@H]2O[C@H](CO)[C@@H](O)[C@H](O)[C@H]2O)c2cc(CO)cc(O)c21 (some centres unmarked) [Aloin],77.9
12,COc1cc(C=O)ccc1O [Vanillin],83.8
13,COc1ccc([C@@H]2CC(=O)c3c(O)cc(O)cc3O2)cc1O [Hesperetin],88.4
14,C=C1C(=O)[C@]23[C@H](O)[C@H]1CC[C@H]2[C@@]12CO[C@]3(O)[C@@H](O)[C@@H]1C(C)(C)CC[C@@H]2O [Oridonin],87.8
15,O=c1cc(-c2ccc(O)c(O)c2)oc2cc(O)cc(O)c12 [Luteolin],66.6

# Same assay, conditions: 0.5 h, read-out: DPP4 activity in library screen, Exp 1
row,SMILES,remaining activity at 10 µM [%]
1,O=c1cccc2n1C[C@@H]1CNC[C@H]2C1 [Cytisine],90.3

# Same assay, conditions: 0.5 h, read-out: DPP4 activity in library screen, Exp 1, 10 µM; control mean 100.0; Figure 1A raw data
row,SMILES,remaining activity at 10 µM [%]
1,COC(=O)[C@@H]1[C@H]2C[C@H]3c4[nH]c5ccccc5c4CCN3C[C@@H]2CC[C@@H]1O [Yohimbine HCl],92.1

# Same assay, conditions: 0.5 h, read-out: DPP4 activity in library screen, Exp 2
row,SMILES,remaining activity at 10 µM [%]
1,O=c1cccc2n1C[C@@H]1CNC[C@H]2C1 [Cytisine],91

# Same assay, conditions: 0.5 h, read-out: DPP4 activity in library screen, Exp 2, 10 µM; control mean 100.0; Figure 1A raw data
row,SMILES,remaining activity at 10 µM [%]
1,COC(=O)[C@@H]1[C@H]2C[C@H]3c4[nH]c5ccccc5c4CCN3C[C@@H]2CC[C@@H]1O [Yohimbine HCl],92.7

# Same assay, conditions: 0.5 h, read-out: DPP4 activity in library screen, Exp 3
row,SMILES,remaining activity at 10 µM [%]
1,O=c1cccc2n1C[C@@H]1CNC[C@H]2C1 [Cytisine],109

# Same assay, conditions: 0.5 h, read-out: DPP4 activity in library screen, Exp 3, 10 µM; control mean 100.0; Figure 1A raw data
row,SMILES,remaining activity at 10 µM [%]
1,COC(=O)[C@@H]1[C@H]2C[C@H]3c4[nH]c5ccccc5c4CCN3C[C@@H]2CC[C@@H]1O [Yohimbine HCl],90.1

# Same assay, conditions: 0.5 h, read-out: DPP4 activity in library screen, Mean
row,SMILES,remaining activity at 10 µM [%]
1,O=c1cccc2n1C[C@@H]1CNC[C@H]2C1 [Cytisine],96.7

# Same assay, conditions: 0.5 h, read-out: DPP4 activity in library screen, Mean, 10 µM; control mean 100.0; mean of Exp 1-3
row,SMILES,remaining activity at 10 µM [%]
1,COC(=O)[C@@H]1[C@H]2C[C@H]3c4[nH]c5ccccc5c4CCN3C[C@@H]2CC[C@@H]1O [Yohimbine HCl],91.6

# Reference: publication PMC5428354, “Screening of a natural compound library identifies emodin, a natural compound from Rheum palmatum Linn that inhibits DPP4” (PeerJ, 2017)
